US9309198B2, “N-[3-(2-carboxyethyl)phenyl]piperidin-1-ylacetamide derivatives and use thereof as activators of soluble guanylate cyclase” (Bayer Pharma Aktiengesellschaft, priority 2012, dated 2016)

How the values were obtained:
[1] = molecular target: T1, soluble guanylate cyclase (sGC) (Rattus norvegicus, UniProt P20595); test: Stimulation of sGC enzyme activity (PPi detection, luciferase luminescence); format: biochemical
T1 construct: made in house
T1 sequence (P20595 1-619): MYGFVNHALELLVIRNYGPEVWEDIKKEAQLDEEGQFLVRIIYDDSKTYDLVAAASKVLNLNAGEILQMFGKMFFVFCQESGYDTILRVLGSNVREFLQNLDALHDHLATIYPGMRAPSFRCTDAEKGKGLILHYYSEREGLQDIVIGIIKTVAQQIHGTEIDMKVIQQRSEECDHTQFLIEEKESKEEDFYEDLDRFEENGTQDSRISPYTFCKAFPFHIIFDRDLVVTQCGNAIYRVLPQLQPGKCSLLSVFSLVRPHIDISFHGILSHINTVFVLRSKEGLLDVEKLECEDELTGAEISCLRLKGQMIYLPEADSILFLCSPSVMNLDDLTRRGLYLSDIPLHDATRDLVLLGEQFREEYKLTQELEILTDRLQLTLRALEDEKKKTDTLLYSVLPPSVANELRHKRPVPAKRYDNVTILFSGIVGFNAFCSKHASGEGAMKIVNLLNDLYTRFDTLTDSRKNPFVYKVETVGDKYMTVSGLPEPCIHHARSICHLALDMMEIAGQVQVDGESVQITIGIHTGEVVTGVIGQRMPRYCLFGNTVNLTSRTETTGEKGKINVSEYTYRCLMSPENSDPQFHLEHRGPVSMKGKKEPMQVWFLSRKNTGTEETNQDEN
T1 sequence (P19686 1-690 partner): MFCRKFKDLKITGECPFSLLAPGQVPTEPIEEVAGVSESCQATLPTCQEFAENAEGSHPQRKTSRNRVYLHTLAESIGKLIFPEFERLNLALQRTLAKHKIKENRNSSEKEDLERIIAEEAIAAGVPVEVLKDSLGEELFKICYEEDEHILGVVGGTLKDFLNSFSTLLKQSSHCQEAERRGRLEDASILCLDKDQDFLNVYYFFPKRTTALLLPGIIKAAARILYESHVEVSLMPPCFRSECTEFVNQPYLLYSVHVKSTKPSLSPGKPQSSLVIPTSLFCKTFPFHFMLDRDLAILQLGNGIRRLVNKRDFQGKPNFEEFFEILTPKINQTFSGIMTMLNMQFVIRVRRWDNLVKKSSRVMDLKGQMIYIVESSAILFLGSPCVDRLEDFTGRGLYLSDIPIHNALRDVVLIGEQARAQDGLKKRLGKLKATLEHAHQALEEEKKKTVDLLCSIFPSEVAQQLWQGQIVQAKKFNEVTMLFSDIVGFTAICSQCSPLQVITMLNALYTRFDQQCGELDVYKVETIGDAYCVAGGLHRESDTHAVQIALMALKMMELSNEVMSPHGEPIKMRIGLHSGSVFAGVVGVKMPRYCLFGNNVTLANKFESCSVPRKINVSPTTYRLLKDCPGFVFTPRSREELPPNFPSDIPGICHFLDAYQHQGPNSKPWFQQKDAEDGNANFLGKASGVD
Experimental: B-3. Stimulation of sGC Enzyme Activity
Soluble guanylate cyclase (sGC) converts on stimulation GTP into cGMP and pyrophosphate (PPi). PPi is detected with the aid of the assay described below. The signal produced in the assay increases as the reaction progresses and serves as a measure of the sGC enzyme activity under the given stimulation.
To carry out the assay, 29 μl of enzyme solution [0-10 nM soluble guanylate cyclase (prepared according to Hönicka et al., J. Mol. Med. 77, 14-23 (1999)) in 50 mM TEA, 2 mM MgCl2, 0.1% BSA (fraction V), 0.005% Brij®, pH 7.5] are initially introduced into a microplate, and 1 μl of the substance to be tested (as a serially diluted solution in DMSO) is added. The mixture is incubated at room temperature for 10 min. Then 20 μl of detection mix [1.2 nM Firefly Luciferase (Photinus pyralis luciferase, Promega), 29 μM dehydroluciferin (prepared according to Bitler & McElroy, Arch. Biochem. Biophys. 72, 358 (1957)), 122 μM luciferin (Promega), 153 μM ATP (Sigma) and 0.4 mM DTT (Sigma) in 50 mM TEA, 2 mM MgCl2, 0.1% BSA (fraction V), 0.005% Brij®, pH 7.5] are added. The enzyme reaction is started by adding 20 μl of substrate solution [1.25 mM guanosine 5′-triphosphate (Sigma) in 50 mM TEA, 2 mM MgCl2, 0.1% BSA (fraction V), 0.005% Brij®, pH 7.5] and measured continuously in a luminometer. The extent of the stimulation by the substance to be tested can be determined relative to the signal of the unstimulated reaction.
The activation of haem-free guanylate cyclase is examined by addition of 25 μM of 1H-1,2,4-oxadiazolo[4,3-a]quinoxalin-1-one (ODQ) to the enzyme solution and subsequent incubation for 30 minutes and compared to the stimulation of the native enzyme.

[2] = molecular target: T2, recombinant guanylate cyclase reporter cell line (sGC, CHO reporter cell) (Rattus norvegicus, UniProt P20595); test: Effect on a recombinant guanylate cyclase reporter cell line (CHO reporter cell); format: cell-based
T2 construct: expressed in transfected cells; host or cells: CHO reporter cell line
T2 sequence (P20595 1-619): T1 sequence (P20595 1-619)
T2 sequence (P19686 1-690 partner): T1 sequence (P19686 1-690 partner)
Experimental: B-2. Effect on a Recombinant Guanylate Cyclase Reporter Cell Line The cellular activity of the compounds according to the invention is determined using a recombinant guanylate cyclase reporter cell line, as described in F. Wunder et al., Anal. Biochem. 339, 104-112 (2005).

[3] = molecular target: T3, recombinant soluble guanylate cyclase (sGC), haem-free (Rattus norvegicus, UniProt P20595); test: Stimulation of recombinant soluble guanylate cyclase (sGC) in vitro, haem-free enzyme; format: biochemical; details: n = 2
T3 construct: made in house
T3 sequence (P20595 1-619): T1 sequence (P20595 1-619)
T3 sequence (P19686 1-690 partner): T1 sequence (P19686 1-690 partner)
Experimental: (§1) B-1. Stimulation of Recombinant Soluble Guanylate Cyclase (sGC) In Vitro
The investigations on the stimulation of recombinant soluble guanylate cyclase (sGC) by the compounds according to the invention with and without sodium nitroprusside and with and without the haem-dependent sGC inhibitor 1H-1,2,4-oxadiazolo[4,3-a]quinoxalin-1-one (ODQ) are carried out by the method described in detail in the following literature reference: M. Hoenicka, E. M. Becker, H. Apeler, T. Sirichoke, H. Schroeder, R. Gerzer and J.-P. Stasch, “Purified soluble guanylyl cyclase expressed in a baculovirus/Sf9 system: Stimulation by YC-1, nitric oxide, and carbon oxide”, J. Mol. Med. 77 (1999), 14-23. Haem-free guanylate cyclase is obtained by adding Tween 20 to the sample buffer (final concentration 0.5%).
(§2) Activation of sGC by a test substance is stated as x-fold stimulation of basal activity.

[4] = molecular target: T4, recombinant soluble guanylate cyclase (sGC), haem-containing (Rattus norvegicus, UniProt P20595); test: Stimulation of recombinant soluble guanylate cyclase (sGC) in vitro, haem-containing enzyme; format: biochemical; details: for Stimulation (x-times) of haem-containing sGC, Basal: n = 2
T4 construct: made in house
T4 sequence (P20595 1-619): T1 sequence (P20595 1-619)
T4 sequence (P19686 1-690 partner): T1 sequence (P19686 1-690 partner)
From the text: as §1
Hoenicka, E. M. Becker, H. Apeler, T. Sirichoke, H. Schroeder, R. Gerzer and J.-P. Stasch, “Purified soluble guanylyl cyclase expressed in a baculovirus/Sf9 system: Stimulation by YC-1, nitric oxide, and carbon oxide”, J. Mol. Med. 77 (1999), 14-23. Haem-free guanylate cyclase is obtained by adding Tween 20 to the sample buffer (final concentration 0.5%).
as §2

## C[C@H]([C@H](C(=O)Nc1cc(CC2(C(=O)O)CC2)ccc1Cl)N1CCC2(CC1)CC2)C(F)(F)F [Example 25, 1-(3-{[(2R,3R)-2-(6-Azaspiro[2.5]oct-6-yl)-4,4,4-trifluoro-3-methylbutanoyl]amino}-4-chlorobenzyl)cyclopropanecarboxylic acid]
[1]
  MEC (minimum effective concentration), activating action at the sGC enzyme in vitro: 2.2 nM
[1]; read-out: EC50 (half-maximal effective concentration), activating action at the sGC enzyme in vitro
  EC50: 0.015 µM
[2]
  MEC (minimum effective concentration), sGC-activating activity in the CHO reporter cell in vitro: 1 nM
[3]; 0.01 μM Example 25
  Stimulation (x-times) of haem-free sGC, Basal: 1.9 ± 0.8 x-times
[3]; 0.1 μM Example 25
  Stimulation (x-times) of haem-free sGC, Basal: 2.4 ± 0.8 x-times
[3]; 1.0 μM Example 25
  Stimulation (x-times) of haem-free sGC, Basal: 7.3 ± 3.6 x-times
[3]; 10 μM Example 25
  Stimulation (x-times) of haem-free sGC, Basal: 26.6 ± 7.3 x-times
[4]; 0.01 μM Example 25 + 0.01 μM DEA/NO
  Stimulation (x-times) of haem-containing sGC, +0.01 μM DEA/NO: 11.4 ± 3.9 x-times
[4]; 0.01 μM Example 25 + 10 μM ODQ
  Stimulation (x-times) of haem-containing sGC, +10 μM ODQ: 2.3 ± 0.1 x-times
[4]; 0.01 μM Example 25
  Stimulation (x-times) of haem-containing sGC, Basal: 0.9 ± 0.2 x-times
[4]; 0.1 μM Example 25 + 0.01 μM DEA/NO
  Stimulation (x-times) of haem-containing sGC, +0.01 μM DEA/NO: 11.9 ± 4.2 x-times
[4]; 0.1 μM Example 25 + 10 μM ODQ
  Stimulation (x-times) of haem-containing sGC, +10 μM ODQ: 2.7 ± 0.2 x-times
[4]; 0.1 μM Example 25
  Stimulation (x-times) of haem-containing sGC, Basal: 0.9 ± 0.0 x-times
[4]; 1.0 μM Example 25 + 0.01 μM DEA/NO
  Stimulation (x-times) of haem-containing sGC, +0.01 μM DEA/NO: 12.0 ± 3.9 x-times
[4]; 1.0 μM Example 25 + 10 μM ODQ
  Stimulation (x-times) of haem-containing sGC, +10 μM ODQ: 10.5 ± 2.4 x-times
[4]; 1.0 μM Example 25
  Stimulation (x-times) of haem-containing sGC, Basal: 2.8 ± 0.4 x-times
[4]; 10 μM Example 25 + 0.01 μM DEA/NO
  Stimulation (x-times) of haem-containing sGC, +0.01 μM DEA/NO: 15.1 ± 2.9 x-times
[4]; 10 μM Example 25 + 10 μM ODQ
  Stimulation (x-times) of haem-containing sGC, +10 μM ODQ: 32.5 ± 5.4 x-times
[4]; 10 μM Example 25
  Stimulation (x-times) of haem-containing sGC, Basal: 8.6 ± 0.2 x-times
[4]; combination with DEA/NO, haem-containing sGC
  Effect of combination with the NO donor DEA/NO on sGC stimulation: no synergistic effect
[4]; with ODQ, haem-containing sGC
  Effect of the haem-dependent sGC inhibitor ODQ on the activity of the sGC activator: not blocked but, in contrast, even enhanced
